Results published in patent US11827628B2, “Compositions and methods for inhibition of the JAK pathway” (Rigel Pharmaceuticals, Inc., priority 2005, dated 2023).
Where two headings read alike, the source gives them in different places.

Legend:
[1] = tested on: IL-4 stimulated expression of CD23 in human Ramos B cells (JAK-1 and JAK-3); assay: Assay for Ramos B-Cell Line Stimulated with IL-4 (CD23 upregulation, FACS); type: cell-based; settings: read-out: IC50, Example 41
In short: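 Read-out: anti-CD23-PE flow cytometry on Ramos B cells, giving IC50. Cells (5×10^4 per point, RPMI + 5% serum) get compound or DMSO for 1 h at 37 °C, then IL-4 50 units/mL final for 20-24 h.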

Primary human T-cells = assay: Primary Human T-Cell Proliferation Assay Stimulated with IL-2 (CellTiter-Glo); type: cell-based; settings: read-out: IC50, Example 42
In short: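 Peripheral blood T-cells pre-activated with anti-CD3/anti-CD28 and IL-2 were washed free of IL-2, then cultured with compound plus IL-2 for 72 hours at 37° C, duplicate wells. Viability read as ATP by CellTiter-Glo luminescence; IC50 reported.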

[2] = Ramos B-cell line stimulated with IL-4, CD23 expression by FACS
[3] = primary human T-cell proliferation stimulated with IL-2
[4] = Ramos B cells stimulated with IL-4, CD23 expression by FACS
[5] = primary human T-cells stimulated with IL-2, proliferation
[6] = Homo sapiens, Ramos, Ramos B cells stimulated with IL-4, CD23 expression by FACS
[7] = Homo sapiens, T-cell, primary human T-cells stimulated with IL-2, proliferation

| IC50 [1, 2] | IC50 [1, 6] | Compound | IC50 (Primary human T-cells; [3]) | IC50 (Primary human T-cells; [7]) | further results |
| --- | --- | --- | --- | --- | --- |
| 360 nM |  | Cc1cc(Nc2nc(Nc3ccc(C)c(S(N)(=O)=O)c3)ncc2F)ccc1NC(=O)CC#N [Compound I-81, N2-(3-Aminosulfonyl-4-methylphenyl)-5-fluoroN4-[3-methyl4-(N-cyanoacetyl)aminophneyl]-2,4-pyrimidinediamine] | 957 nM |  |  |
|  |  | CCNC(=O)NCc1cccc(Nc2nc(Nc3ccc(S(N)(=O)=O)cc3)ncc2F)c1 [III-116, N2-(4-aminosulfonyl)phenyl-N4-(3-ethylaminocarbonylaminomethyl)phenyl-5-fluoro-2,4-pyrimidinediamine] |  |  | IC50 [1, 4]: 197 nM; IC50 (Primary human T-cells; [5]): 3950 nM |
| 117 nM |  | NS(=O)(=O)c1cccc(Nc2ncc(F)c(Nc3ccc(OCc4ccccn4)c(Cl)c3)n2)c1 [Compound I-171, N2-(3-Aminosulfonylphenyl)-5-fluoro-N4-[4-(2-pyridinyl)-3-chloromethyleneoxyphenyl]-2,4-pyrimidinediamine] | 415 nM |  |  |
|  | 315 nM | Cc1ccc(Nc2ncc(F)c(Nc3cccc4ncccc34)n2)cc1S(N)(=O)=O [VII-67, N2-(3-Aminosulfonyl-4-methylphenyl)-5-fluoro-N4-(quinolin-5-yl)-2,4-pyrimidinediamine] |  | 768 nM |  |
|  | 28.9 nM | Cc1ccc(Nc2ncc(C)c(Nc3ccc4c(c3)N(C)C(=O)CS4)n2)cc1S(N)(=O)=O [VII-33, N2-(3-Aminosulphonyl-4-methylphenyl)-5-methyl-N4-(4-methyl-3-oxo-benzo[1,4]thiazin-6-yl)-2,4-pyrimidinediamine] |  | 18.4 nM |  |
|  | 21.1 nM | COc1ccc(Nc2nc(Nc3ccc(C)c(S(N)(=O)=O)c3)ncc2F)cc1Cl [VI-4, N2-(3-Aminosulfonyl-4-methylphenyl)-N4-(3-chloro-4-methoxyphenyl)-5-fluoro-2,4-pyrimidinediamine] |  | 231 nM |  |
| 64.5 nM |  | Cc1ccc(Nc2ncc(F)c(Nc3ccc(CCC#N)c(C(F)(F)F)c3)n2)cc1S(N)(=O)=O [III-30, N4-(4-Cyanoethylene-3-trifluoromethylphenyl)-5-fluoro-N2-(4-methyl-3-aminosulfonylphenyl)-2,4-pyrimidinediamine] | 319 nM |  |  |
|  |  | N4-(4-Acetylthiomethylcarbonylphenyl)-N2-(4-aminosulfonylphenyl)-5-fluoro-2,4-pyrimidinediamine [IX-41] |  |  | IC50 [1, 4]: 133 nM; IC50 (Primary human T-cells; [5]): 6260 nM |
| 120 nM |  | COc1cc(Nc2ncc(F)c(Nc3ccc(OCC#N)c(C)c3)n2)ccc1S(N)(=O)=O [Compound I-29, N2-(4-Aminosulfonyl-3-methoxy)phenyl-N4-(4-cyanomethoxy-3-methyl)phenyl-5-fluoro-2,4-pyrimidinediamine] | 502 nM |  |  |
|  | 363 nM | Cc1ccc(Nc2ncc(F)c(Nc3ccc4ccccc4n3)n2)cc1S(N)(=O)=O [VII-64, N2-(3-Aminosulfonyl-4-methylphenyl)-5-fluoro-N4-(quinolin-2-yl)-2,4-pyrimidinediamine] |  | 3810 nM |  |
|  | 147 nM | C#CCN(CC#C)c1ccc(Nc2nc(Nc3ccc(C)c(S(N)(=O)=O)c3)ncc2F)cc1 [VI-67, N2-(3-Aminosulfonyl-4-methylphenyl)-N4-{4-[bis(prop-2-ynyl)amino]phenyl}-5-fluoro-2,4-pyrimidinediamine] |  | 718 nM |  |
| 448 nM |  | Cc1cc(Nc2nc(Nc3ccc(S(N)(=O)=O)cc3)ncc2F)cc(C)c1OCC(N)=O [Compound I-114, N4-(4-Aminocarbonylmethoxy-3,5-dimethyl)phenyl-N2-(4-aminosulfonyl)phenyl-5-fluoro-2,4-pyrimidinediamine] | 6710 nM |  |  |
|  |  | Cc1ccc(Nc2ncc(F)c(Nc3ccc(CNC(N)=O)cc3)n2)cc1S(N)(=O)=O [III-34, N4-(4-Aminocarbonylaminomethylphenyl)-N2-(3-aminosulfonyl-4-methylphenyl)-5-fluoro-2,4-pyrimidinediamine] |  |  | IC50 ([1]; Homo sapiens, Ramos, Ramos B-cell line stimulated with IL-4, CD23 expression by FACS): 473 nM; IC50 (Primary human T-cells; Homo sapiens, T-cell, primary human T-cell proliferation stimulated with IL-2): 381 nM |
